Experimental data from patent US10543194B2, “Organic compounds” (INTRA-CELLULAR THERAPIES, INC., priority 2014, dated 2020).

Key:
[1] = Pharmacokinetic study in mice (plasma and brain availability); format: in vivo; conditions: 10 mg/kg PO, compared to Bay 60-7550
Method: Mice are given a single oral dose of the compound of Example 22 (10 mg/kg, PO) and plasma and brain availability are measured (0.25-4 h) using HPLC and LC-MS using methods analogous to those described in Zhao et al., J. Chromatogr. B. Analyt. Technol. Biomed. Life Sci. (2005) 819(1):73-80 and Appels, N. M., et al., Rapid Commun. Mass Spec. 2005. 19(15): p. 2187-92.

[2] = tested on: cGMP levels in the striatum; assay: Measurements of cGMP in mouse brain in vivo; conditions: mice, 3 mg/kg i.p., 15, 30 or 60 min, compared to Bay 60-7550 (3 mg/kg)
Method: Striatum are dissected from the mouse brains and assayed for levels of cGMP. Trichloroacetic acid (TCA) is added to tissue samples for a final concentration of 5% TCA and the tissue is immediately sonicated in solution and stored on ice. The sonicated sample is centrifuged at 15,000×g for 20 min at 4° C. to remove the precipitated protein. To extract the TCA, the sample is washed three times in water saturated ether. The samples are then dried under vacuum (Speedvac, Savant SPD111V) at room temperature and re-suspended in 100 μL EIA buffer. […] Each sample is tested in duplicate in precoated assay plates alongside the 8-point cGMP standard dilutions. In addition, blank, maximum binding (B0) and non-specific binding wells are included. To all wells containing 50 μL sample or standard, equal volumes of AChE-linked cGMP and cGMP antibody are added. The plate is incubated at 4° C. for 18 hours. The wells are then washed 5 times with wash buffer. Detection reagent containing acetylthiocholine and […] is added and the plate is incubated at room temperature until the OD of the B0 wells is at least 0.5 as recorded by the SoftMax 4.8 software (Molecular Devices, Sunnyvale, Calif.). Each data point is converted to % B/B0 (100*[sample or standard OD−average non-specific binding)/(average B0−average non-specific binding)]). […]

COc1ccc2[nH]c(=O)c3c(C)nn(-c4cc(OCC5CCC5)ccc4Cl)c3c2n1 [Example 22, 1-(2-Chloro-5-(cyclobutylmethoxy)phenyl)-8-methoxy-3-methyl-1H-pyrazolo[4,3-c][1,5]naphthyridin-4(5H)-one]
brain access [1]: good brain access
cGMP levels in the striatum [2]: increases cGMP levels in the striatum
